Data as given in publication PMC5760734, “Development of an oral once-weekly drug delivery system for HIV antiretroviral therapy” (Nature Communications, 2018).

Tests used:
[1] = Drug release from polymer matrices in SGF; type: physicochemical; conditions: for drug released: n = 3
Method: Drug loaded polymer matrices were synthesized by melt mixing. Appropriate amounts of drug and polymer were weighed and mixed in a 20 mL glass vial. The vial was then placed in a convection oven at 130 °C to melt the polymer. The mixture was then transferred to a negative mould heated to the same temperature. Once the mould was filled with the melted mixture, it was removed from the oven and cooled at room temperature.
Drug release studies were performed in SGF supplemented with 5%w/w Tween® 20. The drug–polymer matrices were placed in 50 mL release media at 37 °C in an incubator shaker at 150 r.p.m. At various times, about 1 mL of the media was collected and stored at −20 °C until further analysis. The rest of the media was discarded and the drug–polymer matrix was placed in fresh media. Drug concentrations in the aliquots were measured using HPLC as described previously.

[2] = Drug stability in simulated gastric fluid (SGF), HPLC; conditions: SGF pH ~1.2, 37 °C, 24 h, salt forms
Method: To determine drug stability at low pH, the drugs were dissolved in methanol to form a concentrated stock solution. Methanol solutions were then diluted 20-fold in simulated gastric fluid, USP without pepsin (pH ~1.2; henceforth referred to as SGF). Drug solutions were then placed in a shaker incubator (New Brunswick™ Innova® 44, Eppendorf, USA) at 37 °C and 150 r.p.m. At various times, aliquots were withdrawn and stored at −20 °C until analysis. Drug concentrations in the solution were analysed using HPLC and reported as percent of the initial concentrations.
The output signal was monitored and processed using ChemStation® software (Agilent Technologies Inc., USA). Chromatographic separation was carried out on a 50 mm × 4.6 mm EC-C18 Agilent Poroshell 120 analytical column with 2.7 µm spherical particles.
The injection volume was 5 µL, and the UV detection wavelength of 260 nm was selected.
For RPV, the stationary phase was maintained at 40 °C. The mobile phase consisted of methanol: water (pH 3.5 adjusted with 0.1% formic acid) (43:57 v/v) at a flow rate of 0.9 mL/min over a 10 min run time. The injection volume was 20 µL, and the UV detector was set at 290 nm.
For CAB, the column was maintained at 45 °C and the optimized mobile phase consisted of acetonitrile: water (pH 3.5 adjusted with 0.1% formic acid) (30:70 v/v) at flow rate of 0.8 mL/min over an 8 min run time. For analysis, 5 µL of the sample was injected on to the column, and the samples were analysed at a wavelength of 260 nm.
For tenofovir alafenamide, the column was maintained at 22 °C. The mobile phase consisted initially of acetonitrile: water (pH 3.5 adjusted with 0.1% formic acid) (100:0 v/v). […] The flow rate was 0.6 mL/min and the run time was 8 min. The injection volume was 10 µL, and the UV detection wavelength of 260 nm was selected.

C[C@@H]1CCO[C@H]2Cn3cc(C(=O)NCc4ccc(F)cc4F)c(=O)c(O)c3C(=O)N12 [DTG, dolutegravir]
drug released ([1]; PCL matrix, over a week): 5% | total drug release from poly(anhydrides) relative to PCL ([1]; poly(anhydride) matrices vs PCL): 4–8 fold | drug released ([1]; poly(ethylene glycol) matrix, within the first 6 h): 60–70% | stability in SGF [2]: stable
